Results: patent publication US6512099B2, “Roselipin derivative” (Kitasato Institute, priority 2001, dated 2003)

Legend:
[1] = system: Raji cell derived from human Burkitt lymphoma; assay: Inhibitory activity against production of triacylglycerol in human-derived cell (Raji); assay type: cell-based; conditions: 0.5 h, [1-14C]oleic acid, 37° C., 30 minutes, read-out: concentration which inhibited 50% of production of triacylglycerol
Experimental: An influence on production of triacylglycerol was examined in accordance with a method by TOMODA et al. (Journal of Biological Chemistry, vol. 266, pp. 4,212 to 4,219, 1991) by use of a human-derived cell (Raji cell derived from human Burkitt lymphoma). 200 μl of 2.7×10^5 cells/ml of Raji cell solution [1-^14C]oleic acid (0.02 μCi) was allowed to react at 37° C. for 30 minutes. After all lipids were extracted from a mixed solution of chloroform and methanol (mixing ratio=1:2), a measurement was carried out by use of the same method as used for the inhibitory activity against diacylglycerol acyltransferase derived from a rat. The concentrations of the roselipin R-3A, R-3B, R-4 and R-5 compounds which inhibited 50% of production of triacylglycerol were measured.

Mucor racemosus KF223 = assay: Paper disk growth inhibition circle; assay type: cell-based; conditions: 10 μg on 6 mm filter paper
[2] = target: diacylglycerol acyltransferase; assay: Inhibitory activity against diacylglycerol acyltransferase derived from rat (rat liver microsome fraction); assay type: biochemical; conditions: 23° C., 15 minutes, read-out: concentration which inhibited 50% of the diacylglycerol acyltransferase
Experimental: A diacylglycerol acyltransferase activity was measured by means of a partially modified version of a method of Mayorek and Bar-Tana (Journal of Biological Chemistry, vol. 260, pp. […], 1985). That is, using a microsome fraction prepared from a rat liver as an enzyme source, 0.75 mM 1,2-dioleoyl-sn-glycerol and 30 μM [1-^14C]palmitoyl-CoA (0.02 μCi) were added to 175 mM tris-hydrochloric acid (HCl)(pH: 8.0) buffer containing 8 mM MgCl2, 1 mg/ml bovine serum albumin and 2.5 mM diisopropyl fluorophosphonate to a total volume of 200 μL. The mixture was allowed to react at 23° C. for 15 minutes. […] Thereafter, the radioactivity of a triacylglycerol fraction was measured by an RI radio scanner (manufactured by AMBIS CO., LTD.) to measure the diacylglycerol acyltransferase activity.

[3] = system: Acholeplasma laidlawii KB174; assay: Paper disk growth inhibition circle; assay type: cell-based; conditions: 10 μg on 6 mm filter paper
Bacillus subtilis KB27 = assay: Paper disk growth inhibition circle; assay type: cell-based; conditions: Bacillus subtilis KB27 (synthetic medium); 10 μg on 6 mm filter paper
Pyricularia oryzae KB180 = assay type: cell-based; conditions: 10 μg on 6 mm filter paper

Row | SMILES | IC50 [1] | Diameter of Inhibition Circle (Mucor racemosus KF223) | IC50 [2] | Diameter of Inhibition Circle [3] | Diameter of Inhibition Circle (Bacillus subtilis KB27) | Diameter of Inhibition Circle (Pyricularia oryzae KB180)
1 | CCC(C)CC(C)CC(C)C(O)C(C)/C=C(\C)C(O)C(C)/C=C(\C)C(O)C(C)/C=C(\C)C(=O)OC[C@@H](O)[C@@H](O)[C@H](O)CO (stereo partly shown) [roselipin R-3A] | 11 µM | 14 mm | 60 µM | 10 mm | 10 mm | 
2 | CCC(C)CC(C)CC(C)C(O)C(C)/C=C(\C)C(O)C(C)/C=C(\C)C(O)C(C)/C=C(\C)C(=O)OC[C@@H](O)[C@H](O)[C@H](O)CO (stereo partly shown) [roselipin R-3B] | 10 µM |  | 33 µM |  |  | 
3 | CCC(C)CC(C)CC(C)C(O[C@@H]1OC(CO)[C@@H](O)C(O)C1O)C(C)/C=C(\C)C(O)C(C)/C=C(\C)C(O)C(C)/C=C(\C)C(=O)OC (stereo partly shown) [roselipin R-4] | 200 µM | 12 mm | > 762 µM |  |  | 16 mm
4 | CCC(C)CC(C)CC(C)C(O)C(C)/C=C(\C)C(O)C(C)/C=C(\C)C(OC)C(C)/C=C(\C)C(=O)OC (stereo not shown) [roselipin R-5] | 250 µM |  | > 984 µM |  |  | 
